Source: patent publication US12303524B2, “Compositions comprising S-adenosylmethionine and a gallic acid ester” (MSI-195 HOLDINGS, LLC, priority 2012, dated 2025)
Each block holds one molecule with its values, some of them ahead of it.

How the values were obtained:
[1] = Plasma SAMe in beagles after tablets of SAMe co-formulated with alkyl gallates (Example 1); type: in vivo, Beagle dogs; conditions: single enteric coated tablet, 400 mg SAMe ion co-formulated with 25 mg gallic acid ester, fasted male beagles, FIG. 1
Method: Tablets comprising SAMe and various alkyl gallates of different chemical structure were generated by mixing SAMe with either methyl gallate, ethyl gallate, butyl gallate, isobutyl gallate, isoamyl gallate or octyl gallate (see structures below). Tablets were then administered to Beagle dogs and blood samples were withdrawn over time. Analysis of concentrations of SAMe in plasma was used to compare the effects of these gallic acid esters on the uptake of orally administered SAMe in the blood.
Tablets were generated by mixing 400 mg SAMe ion (from SAMe disulfate tosylate) with 25 mg gallic acid ester along with excipients (microcrystalline cellulose, sodium starch glycolate, silicon dioxide, and magnesium stearate) to make up the ˜1025 mg tablet. A commercial seal coat and then a commercial enteric coat was applied to the tablets prior to dissolution testing. Detailed dissolution profiling was performed according to USP standards at either pH 6.8 or 6.0 on each set of tablets to ensure that adequate dissolution was achieved prior to in vivo pharmacokinetic analysis.
The study protocol was approved by the institution's Animal Care Committee, and all animals were cared for according to regulations proposed by Agriculture Canada and the USDA.
Ten different formulations were tested in the present study. 400 mg SAMe co-formulated with 25 mg propyl gallate was compared to: SAMe control tablets (i.e., with no propyl gallate); SAMe tablets co-administered with separate 25 mg propyl gallate tablets; a commercially available SAMe product (400 mg); or 400 mg SAMe with 25 mg of either methyl gallate, ethyl gallate, butyl gallate, isobutyl gallate, isoamyl gallate or octyl gallate.

[2] = Plasma SAMe in beagles after capsules of SAMe with gallate-related molecules (Example 2); type: in vivo, Beagle dogs; conditions: single capsule, 100 mg SAMe ion with 100 mg agent, versus BHT, propyl paraben and gallic acid, FIGS. 2A and 2B
Method: BHT, propyl paraben and propyl gallate are food-grade antioxidants which have often been used in combination. […] The capsules also contained additional excipients (Microcrystalline cellulose, Sodium Starch Glycolate, Colloidal Silicon Dioxide, and Magnesium Stearate). Capsules were manually filled and in some embodiments, a layer of commercial seal coat was applied to the capsules using a fluid bed coater. Beagle dogs were administered a single orally delivered dose as described above.

[3] = PAMPA permeability of SAMe with and without propyl gallate (Example 4); type: in vitro ADME; conditions: for Average Effective Permeability: SAMe 2 mM, 5 hr
Method: Using a PAMPA (parallel artificial membrane permeability assay) model, the permeability of SAMe was measured in the presence and absence of propyl gallate.
PAMPA methods were used to determine the permeability of substances from a donor compartment, through a lipid-infused artificial membrane into an acceptor compartment. A multi-well microtitre plate was used for the donor and a membrane/acceptor compartment is placed on top. At the beginning of the test, SAMe disulfate tosylate (with or without different concentrations of propyl gallate as indicated in Table 2 below) was added to the donor compartment, and the acceptor compartment remained drug-free. After an incubation period, the compartments were separated and the amount of SAMe was measured in each compartment. Mass balance allows calculation of SAMe that remains in the membrane.

[4] = Beagle pharmacokinetics of SAMe tablets with various doses of propyl gallate (Example 6); conditions: for AUC(0-inf.) ± SD / AUC(0-t) / Cmax average of individuals / T1/2 ± SD / Tmax ± SD: oral, fasted beagles
Method: Tablets comprising SAMe and various amounts of propyl gallate were generated by mixing S-adenosyl-L-methionine disulfate tosylate granules (equivalent to 400 mg of SAMe ion) with the various amounts of propyl gallate listed in Table 4 below. Each mixture was pressed into a tablet and coated followed by dissolution profiling and in vivo pharmacokinetic analysis using beagle dogs.
For in vivo studies, fasted male beagle dogs (7-10 kg) were used as described above. Each group (6 dogs for SAMe/propyl gallate and 6 dogs for the SAMe control lacking propyl gallate) were dosed with a single orally administered enteric coated tablet, under fasted conditions, followed by 5 mL of purified water orally with a syringe to facilitate swallowing. Pharmacokinetic blood samples (2 mL each) for SAMe analysis were collected from the jugular vein using the following time points: pre-dose, 20 and 40 minutes, 1, 1.5, 2, 3, 4, 6, and 8 hours after treatment. The venipuncture blood samples were collected into tubes containing the anticoagulant K2-EDTA, and stored on wet ice pending processing. Following collection, samples were centrifuged (at 4° C.) to separate the plasma fraction from the blood cells. The resulting plasma fraction was recovered and stored frozen (at −80° C.) using polypropylene tubes pending bioanalytical analysis.
The concentration of SAMe in dog plasma was determined using the well established LC/MS/MS method. This method employs stable-isotope dilution liquid chromatography-electrospray […] tandem mass spectrometry (LC-ESI-MS/MS) to determine SAMe and SAH in plasma. The analysis used to calculate the main pharmacokinetic parameters (Cmax, Tmax and AUC) was conducted using GraphPad Prism® 5 software.

Caco-2 cell monolayers = test: Permeability of SAMe across Caco-2 cell monolayers with propyl gallate (Example 3); conditions: for apparent permeability coefficient Papp, apical to basolateral / apparent permeability coefficient Papp, basolateral to apical: SAMe salt alone
Method: The Caco-2 cell line is derived from a human colorectal carcinoma and is widely used for in vitro cell culture models for the study of gastrointestinal drug absorption (Stewart, B., (1995) Pharm. Res. 12:693). In these models, pure cell lines are grown on a semi-permeable membrane. Drug formulations are placed on the apical or basolateral side of the cell monolayer and transport is determined via measurement of drug concentrations on the other side of the membrane.
The Caco-2 cell line utilized here was from the American Type Culture Collection (ATCC). Caco-2 cells are grown in Dulbecco's modified Eagle's medium (DMEM, Gibco) supplemented with 20% FBS (fetal bovine serum, Gibco), 100 uM non-essential amino acids (NEAA, Gibco) and 2 mM L-glutamine (Gibco). A Beckton Dickinson BIOCOAT® HTS Caco-2 Assay System Kit was used resulting in 6.6×10^5 cells/cm^2 seeding density (BIOCOAT is a registered trademark of Collaborative Biomedical Products, Inc., Bedford, Massachusetts, USA). The cells used in transport studies were grown for 3 days before the experiments. The culturing conditions were 37° C. in an atmosphere of 5% CO2 and 100% humidity.
A 2 mM aqueous solution of SAMe disulfate tosylate was added on the apical or basolateral side according to the manufacturer's procedure for the Caco-2 kit.
The permeability (Papp) of SAMe is calculated using the following formula: […]
Where dQ/dt is the rate of permeation, Co is the initial concentration of test agent, and A is the area of the monolayer.

[5] = background statement; cited from earlier work
[6] = control tablet 400 mg SAMe, 0 mg Propyl Gallate
[7] = tablet 400 mg SAMe, 6.25 mg Propyl Gallate
[8] = tablet 400 mg SAMe, 25 mg Propyl Gallate
[9] = tablet 400 mg SAMe, 100 mg Propyl Gallate

- maximum SAMe plasma concentration (Cmax), uptake into the plasma [1]: superior uptake into the plasma
- effect of propyl gallate on SAMe transport across the PAMPA membrane ([3]; propyl gallate at 2.0 mM): no effect on SAMe transport
Molecule: CCCOC(=O)c1cc(O)c(O)c(O)c1 [propyl gallate]
- plasma SAMe Cmax and AUC, SAMe uptake into the blood [2]: superior and surprising ability of propyl gallate to increase SAMe uptake into the blood
- relationship of propyl gallate dose with SAMe uptake in vivo ([4]; dog, in vivo): dose-response relationship with SAMe uptake in vivo

Molecule: C[S+](CC[C@H](N)C(=O)[O-])C[C@H]1O[C@@H](n2cnc3c(N)ncnc32)[C@H](O)[C@@H]1O.O=S(=O)(O)CCCCS(=O)(=O)O (stereo partly drawn) [SAMe 1,4 butanedisulfonate]
- apparent permeability coefficient Papp, apical to basolateral (Caco-2 cell monolayers): 0.5 ×10⁻⁶ cm/s
- apparent permeability coefficient Papp, basolateral to apical (Caco-2 cell monolayers): 0.6 ×10⁻⁶ cm/s

Molecule: S-adenosyl-L-methionine disulfate tosylate [SAMe disulfate tosylate]
- apparent permeability coefficient Papp, apical to basolateral (Caco-2 cell monolayers): 0.41 ×10⁻⁶ cm/s
- apparent permeability coefficient Papp, basolateral to apical (Caco-2 cell monolayers): 0.5 ×10⁻⁶ cm/s

- maximum SAMe plasma concentration (Cmax), uptake into the plasma [1]: superior uptake into the plasma
Molecule: CCOC(=O)c1cc(O)c(O)c(O)c1 [ethyl gallate]

- maximum SAMe plasma concentration (Cmax), uptake into the plasma [1]: superior uptake into the plasma
Molecule: CCCCCCCCOC(=O)c1cc(O)c(O)c(O)c1 [octyl gallate]

Molecule: CCCCOC(=O)c1cc(O)c(O)c(O)c1 [butyl gallate]
- maximum SAMe plasma concentration (Cmax), uptake into the plasma [1]: did not result in pharmacokinetics even close to that of SAMe-propyl gallate formulations

Molecule: C[S+](CC[C@H](N)C(=O)[O-])C[C@H]1O[C@@H](n2cnc3c(N)ncnc32)[C@H](O)[C@@H]1O (stereo partly drawn) [SAMe, S-adenosyl-L-methionine]
- Average Permeability Coefficient Apical→Basolateral (Caco-2 cell monolayers; Caco-2): 1.6 ×10⁻⁶ cm/s
- Average Permeability Coefficient Basolateral→Apical (Caco-2 cell monolayers; Caco-2): 1.7 ×10⁻⁶ cm/s
- transport of SAMe across the PAMPA membrane [3]: essentially no transport
- Average Effective Permeability ([3]; Propyl Gallate 0 mM): 0.42 ×10⁻⁶ cm/s
- Average Effective Permeability ([3]; Propyl Gallate 0.2 mM): 0.2 ×10⁻⁶ cm/s
- Average Effective Permeability ([3]; Propyl Gallate 2 mM): 0.48 ×10⁻⁶ cm/s
- AUC(0-inf.) ± SD [4, 6]: 15,186 ± 6,831 hr*ng/mL
- AUC(0-t) [4, 6]: 14,756 hr*ng/mL
- Cmax average of individuals [4, 6]: 6731 ng/mL
- T1/2 ± SD [4, 6]: 1.4 ± 0.4 h
- Tmax ± SD [4, 6]: 1.8 ± 0.7 h
- AUC(0-inf.) ± SD [4, 7]: 21,734 ± 9848 hr*ng/mL
- AUC(0-t) [4, 7]: 21,395 hr*ng/mL
- Cmax average of individuals [4, 7]: 11,269 ng/mL
- T1/2 ± SD [4, 7]: 1.4 ± 0.5 h
- Tmax ± SD [4, 7]: 1.4 ± 0.8 h
- AUC(0-inf.) ± SD [4, 8]: 25,159 ± 13,033 hr*ng/mL
- AUC(0-t) [4, 8]: 24,847 hr*ng/mL
- Cmax average of individuals [4, 8]: 15,333 ng/mL
- T1/2 ± SD [4, 8]: 1.5 ± 0.4 h
- Tmax ± SD [4, 8]: 1.2 ± 0.5 h
- AUC(0-inf.) ± SD [4, 9]: 34,305 ± 18,484 hr*ng/mL
- AUC(0-t) [4, 9]: 34,078 hr*ng/mL
- Cmax average of individuals [4, 9]: 18,700 ng/mL
- T1/2 ± SD [4, 9]: 1.0 ± 0.2 h
- Tmax ± SD [4, 9]: 1.6 ± 0.7 h
- uptake of exogenous SAMe [5]: < 5%

- maximum SAMe plasma concentration (Cmax), uptake into the plasma [1]: superior uptake into the plasma
Molecule: CC(C)CCOC(=O)c1cc(O)c(O)c(O)c1 [isoamyl gallate]
